Test results as given in patent US6562871B1, “Dry granulation of pharmaceutical formulation comprising mexiletine” (Boehringer Ingelheim Pharmaceuticals, Inc., priority 2000, dated 2003).
Like-named read-outs stand apart in the source and are kept apart here.

How the values were obtained:
[1] = Flow studies (funnel flow rate, angle of repose); type: physicochemical
Procedure: The flow studies were performed using a ring stand and funnel set-up, such that the funnel was perpendicular to the table flat surface and the tip of the funnel was 6 inches from the table flat surface. The funnel was plastic with the following dimensions: upper diameter, 150 mm, lower diameter 24 mm, and overall length 135 mm. To the upper, wider diameter of the funnel a vibrator was placed touching the outer perimeter. The vibrator was set on its dial such that the indicator was in the 3 o'clock position. Fifty grams of material was placed into the funnel while holding a piece of cardboard under it. The vibrator was started, and the cardboard was removed while simultaneously starting a timer. The time for the fifty grams to pass through a funnel was recorded. The angle of repose, the maximum angle that can be obtained between the free standing surface of a powder heap and the horizontal plane, was calculated according to: […]
Where h is the height of the powder heap and D is the diameter of the base of the powder heap. Tests were performed in duplicate.

[2] = Compressional force profiles; type: physicochemical; conditions: slugs on hydraulic press, FIG. 1 and FIG. 2
Text: Compressional force profiles were generated on a calibrated Carver press using 12 mm standard cup punches and matching die. The punches and die were dusted with magnesium stearate to facilitate the release of the slug from the die. Five hundred milligram aliquots of drug substance were weighed and individually loaded into the die for compression. Slugs were compressed at 1000, 2000, 3000, 4000, 5000, 6000, 7000 and 8000 pounds gauge force (unless otherwise noted). Gauge force readings were corrected based on the calibration for that gauge and press. The compressed slugs for each representative force were weighed on a four place balance and measured for thickness. Pressure, volume and density were calculated using slug (tablet) geometry and area.

Pour and tap density = type: physicochemical; conditions: average of two measurements
Procedure: Pour and tap density were tested using a Van Kel dual tapper and a 100 mL fluted graduate. The tare weight of the graduate was determined. It was then filled by pouring the powder into the graduate to approximately 70 mL. The net weight was next determined and a pour density calculated by dividing the net weight by the observed volume. Tap density was determined by allowing the graduate to tap 1000 times and reading the new volume. Tap density was calculated by dividing the net weight by the new “tap” volume. Both measurements were expressed in grams/mL. Results were reported as the average of two measurements.

[3] = Procedure: Particle size and distribution was determined by suspending a sample of powder in mineral oil on a hemacytometer and counting particles in the size ranges: 1-5, 5-10, 10-25, 25-50, 50-100, 100-200, >200 μm using a polarizing light microscope. At least 200 particles were counted.
Maximum and minimum particle sizes were determined with a large sampling using a low power, stereo microscope. The sample was suspended in a well slide filled with mineral oil. Measurements of the largest and smallest particles were made with a calibrated reticule.

Angle of Repose [1]: 62 °
Flow Rate ([1]; 50 g through funnel, vibrator assisted): 2.1 g/s
Compressibility (density vs pressure) ([2]; listed as drug substance): very compressible
Compressibility (density vs pressure) ([2]; listed as mexiletine drug substance): very good compressional characteristics
Tap Density (Pour and tap density; 1000 taps): 0.35 g/mL
Bulk Density (Pour and tap density; pour density): 0.22 g/mL
Particle Size Distribution, % by number ([3]; size range 1-5 μm): 32.0%
Particle Size Distribution, % by number ([3]; size range 5-10 μm): 23.3%
Particle Size Distribution, % by number ([3]; size range 10-25 μm): 37.9%
Particle Size Distribution, % by number ([3]; size range 25-50 μm): 6.6%
Particle Size Distribution, % by number ([3]; size range 50-100 μm): 0.2%
Particle Size Distribution, % by number ([3]; size range 100-200 μm): 0.0%
Particle Size Distribution, % by number ([3]; size range >200 μm): 0.0%
Size of larger particles ([3]; well slide technique, larger sample sizes, very few): 150 μm
SMILES: Cc1cccc(C)c1OCC(C)N (centres unmarked) [Mexiletine Drug Substance, 1-(2,6-dimethyl-phenoxy)-2-propanamine]
